Assay results: article PMC7198382 (Journal of nuclear medicine : official publication, Society …, 2019)

What was measured:
[1] = system: CA20948 tumor xenograft-bearing mice; experiment: SPECT/CT tumor uptake of 177Lu-DOTATATE; assay type: in vivo; settings: dynamic SPECT imaging after intravenous administration, one mouse
CA20948 tumor xenografts = experiment: In vivo 177Lu tumor dosimetry from SPECT VOI analysis; parameters: species or system mice; settings: single exponential fit of tumour time-activity data; mean ± SD

`C[C@@H](O)[C@H](NC(=O)[C@@H]1CSSC[C@H](NC(=O)[C@@H](Cc2ccccc2)NC(=O)CN2CCN(CC(=O)O)CCN(CC(=O)O)CCN(CC(=O)O)CC2)C(=O)N[C@@H](Cc2ccc(O)cc2)C(=O)N[C@H](Cc2c[nH]c3ccccc23)C(=O)N[C@@H](CCCCN)C(=O)N[C@@H]([C@@H](C)O)C(=O)N1)C(=O)O` [^177Lu-DOTATATE, (DOTA^0-Tyr^3)-octreotate, metal not drawn] was tested, and the “time at which maximum tumor uptake was reached” value [1] was 60 min and the “mean effective half-life of clearance from the tumor xenografts” value (CA20948 tumor xenografts) was 46.3 ± 8.6 h.
